We go through eight molecules from patent US20040116420A1 (priority 2001, published 2004).

One data set concerns the target T1, HSV-1 protease (Human herpesvirus 1, UniProt P10210).
T1 construct: 6xHis (N); made in house; host or cells: baculovirus expression system
Put plainly: Enzymatic assay for HSV-1 protease (assembly) inhibitor, fluorescence polarization. As to conditions: read-out: HSV-1 Enzyme inhibition IC50. It counts as biochemical. The method in brief:
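Fluorescence polarization read-out: after avidin stop, cleavage of a biotinylated DTAF-labelled release-site peptide by recombinant N-His6 HSV-1 protease was compared with no-inhibitor wells. Enzyme and compound were preincubated 30 min, then substrate reacted 60 min, all at room temperature, pH 7.4 citrate buffer with TCEP.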
In general terms: In fluorescence polarisation assays a small probe gives low polarisation when free and higher when bound to something large.

A further data set concerns HSV-1. Briefly: Antiviral activity, HSV-1 in Vero cells, plaque method. The class given is cell-based. Particulars: Human alphaherpesvirus 1, 20 hours, 90% inhibition of plaque formation. The method in brief:
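This is a virus-yield read-out. The culture medium was frozen at −80° C and thawed, and the plaques it formed were counted. It came from Vero monolayers infected with 50,000 pfu HSV-1 and then exposed to the compound for 20 h at 37° C. EC90 is the concentration inhibiting 90% of plaque formation relative to the untreated infected control.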

In the next data set the test system is Vero cells. Briefly: Cytotoxicity, Vero cells, Alamar Blue. It counts as cell-based. Particulars: 25 μM, 20 hours. In short, it runs like this:
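Living-cell ratio versus untreated control was read by Alamar Blue absorbance after about 6 h of dye incubation. Before that, Vero cells had received 25 μM test compound in 2% FBS-DMEM for 20 hours at 37 °C under 5% CO2.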
A general note: The colour change of resazurin is a common sign of viable cells or microbes.

Bounds are passed on as bounds.

T1 sequence (P10210 1-247): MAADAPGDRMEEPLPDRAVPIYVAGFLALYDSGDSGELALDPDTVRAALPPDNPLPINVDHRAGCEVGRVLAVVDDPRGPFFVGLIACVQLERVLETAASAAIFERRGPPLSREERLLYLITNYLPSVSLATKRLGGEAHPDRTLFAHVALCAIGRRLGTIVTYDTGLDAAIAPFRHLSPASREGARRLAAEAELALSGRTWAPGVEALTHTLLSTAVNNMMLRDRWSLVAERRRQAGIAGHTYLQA

Usually IC50 stands for the point on the concentration scale where inhibition reaches its midpoint. The EC90 is the point of the concentration-response curve where the effect stands at 90%. A high value points to a need for much substance. Take `CCc1ccc(C(=O)Nc2ccc3nc(NC(C)(C)C(=O)N(C)CCc4ccccn4)oc(=O)c3c2C)cc1` [Compound No.187, 4-Ethyl-N-(5-methyl-2-{1-methyl-1-[methyl-(2-pyridin-2-yl-ethyl)-carbamoyl]-ethylamino}-4-oxo-4H-benzo[d][1,3]oxazin-6-yl)-benzamide]: the half-maximal inhibitory concentration (IC50) at HSV-1 protease stood at 1.1 µM. In the data set with HSV-1, this molecule displayed an EC90 of 4.5 µM. In addition, the “Cell viability (% of control)” value with Vero cells is reported as 65.8%.
For `Cc1c(NC(=O)C2CCCC2)ccc2nc(NC(C)(C)C(=O)N(C)CCc3ccccn3)oc(=O)c12` [Compound No.188, Cyclopentanecarboxylic acid (5-methyl-2-{1-methyl-1-[methyl-(2-pyridin-2-yl-ethyl)-carbamoyl]-ethylamino}-4-oxo-4H-benzo[d][1,3]oxazin-6-yl)-amide], in that order: 1.4 µM, more than 12.5 µM and 91.7%.
For `Cc1c(NC(=O)CCl)ccc2nc(NC(C)(C)C(=O)N(C)CCc3ccccn3)oc(=O)c12` [Compound No.189, 2-[6-(2-Chloro-acetylamino)-5-methyl-4-oxo-4H-benzo[d][1,3]oxazin-2-ylamino]-2,N-dimethyl-N-(2-pyridin-2-yl-ethyl)-propionamide], in that order: 2 µM, more than 12.5 µM and 41.0%.
The matching figures for `Cc1c(NC(=O)c2cccc3ccccc23)ccc2nc(NC(C)(C)C(=O)N(C)CCc3ccccn3)oc(=O)c12` [Compound No.190, Naphthalene-1-carboxylic acid (5-methyl-2-{1-methyl-1-[methyl-(2-pyridin-2-yl-ethyl)-carbamoyl]-ethylamino}-4-oxo-4H-benzo[d][1,3]oxazin-6-yl)-amide]: 1.3 µM, 12.4 µM and 74.5%.
Consider `CC(=O)OC(C(=O)Nc1ccc2nc(NC(C)(C)C(=O)N(C)CCc3ccccn3)oc(=O)c2c1C)c1ccccc1` (stereo not drawn) [Compound No.192, Acetic acid (5-methyl-2-{1-methyl-1-[methyl-(2-pyridin-2-yl-ethyl)-carbamoyl]-ethylamino}-4-oxo-4H-benzo[d][1,3]oxazin-6-ylcarbamoyl)-phenyl-methyl ester], for which, on HSV-1 protease, the half-inhibitory concentration (IC50) was 7.2 µM. In the data set with HSV-1, the EC90 was more than 12.5 µM. The “Cell viability (% of control)” value in the data set with Vero cells was determined as 93.9%.
Take `Cc1c(NC(=O)c2ccc3c(c2)OCO3)ccc2nc(NC(C)(C)C(=O)N(C)CCc3ccccn3)oc(=O)c12` [Compound No.193, Benzo[1,3]dioxol-5-carboxylic acid (5-methyl-2-{1-methyl-1-[methyl-(2-pyridin-2-yl-ethyl)-carbamoyl]-ethylamino}-4-oxo-4H-benzo[d][1,3]oxazin-6-yl)-amide]: at HSV-1 protease, the 50% inhibitory concentration (IC50) amounted to 3.7 µM. Also, in the data set with HSV-1, the 90% effect concentration (EC90) is not below 12.5 µM. Besides, in the data set with Vero cells, the “Cell viability (% of control)” value came to 67.0%.
For `Cc1c(NC(=O)c2ccc3ccccc3c2)ccc2nc(NC(C)(C)C(=O)N(C)CCc3ccccn3)oc(=O)c12` [Compound No.194, Naphthalene-2-carboxylic acid (5-methyl-2-{1-methyl-1-[methyl-(2-pyridin-2-yl-ethyl)-carbamoyl]-ethylamino}-4-oxo-4H-benzo[d][1,3]oxazin-6-yl)-amide], in that order: 6.7 µM, 11.8 µM and 71.8%.
For `Cc1c(NC(=O)C(C)C)ccc2nc(NC(C)(C)C(=O)N(C)CCc3ccccn3)oc(=O)c12` [Compound No.195, 2-(6-Isobutyrylamino-5-methyl-4-oxo-4H-benzo[d][1,3]oxazin-2-ylamino)-2,N-dimethyl-N-(2-pyridin-2-yl-ethyl)-propionamide], in that order: 2.1 µM, not below 12.5 µM and 99.7%.
